Assay results: patent publication US20110171328A1, “PHARMACEUTICAL COMPOSITION FOR TREATING DIABETES” (priority 2008, published 2011)

Experiments:
[1] = tested on: NOD mice with spontaneous hyperglycemia; test: Serum insulin of mice with spontaneous hyperglycemia (radioimmunoassay); format: in vivo; details: for Serum insulin: 1 h after administration at day 14, X ± SD; for Effect on serum insulin of the NOD mice, result in words: 20 mg/kg, 14 days
Procedure: (§1) Impacts of the composition in different doses on blood glucose and serum insulin of mice with spontaneous hyperglycemia
(§2) 1, Medicines: 1-deoxynojirimycin and fagomine, prepared by the inventor. The two are prepared into the required concentrations with distilled water before the test (the sum of the concentrations of the 1-deoxynojirimycin and the fagomine in the composition is the same as the concentration of the fagomine or the 1-deoxynojirimycin which is prepared alone). Glibenclamide is obtained from Hunan Dongting Pharmaceutical Co., Ltd. 2. Animals: NOD mice with the weight of 25-35 g, provided by Experimental Animal Center, Peking University Health Science Center. Determine the blood glucose before the test and select the animals with the blood glucose value of above 11.1 mmol/L for carrying out the test. 3. Determination instrument: Yicheng blood glucose tester, developed by Beijing Yicheng Bioelectronic Technology Co., Ltd. 4. Main reagents: ^125I-insulin radioimmunoassay kit, produced by Department of Isotopes, China Institute of Atomic Energy. 5. Test method and results (1) Impacts on the blood glucose of the mice: determine the blood glucose of the NOD mice after fasting for 6 h, select 70 animals with blood glucose above 11.1 mmol/L, randomly divide into seven groups, respectively carry out intragastric administration and give the following medicines: i) control group (distilled water); ii) glibenclamide group (50 mg/kg); and iii)-v) composition in different mixing ratios (20 mg/kg, with different medicine proportions and constant total amount). Carry out the continuous administration for 14 days, fast for 6 h before the administration at the 14th day, draw blood from the animals 1 h after the administration, use the Yicheng blood glucose tester to determine the blood glucose value of the animals, and determine the serum insulin by radioimmunoassay.

α-D-glucosidase = test: Determination of α-D-glucosidase inhibitory activity (PNPG colorimetry at 400 nm); format: biochemical; details: 30 μL inhibitor sample solution in total, from 5 μmol/mL stock solutions, total amount of DNJ and Fag constant, 37° C.
Text: Determination of α-D-glucosidase inhibitory activity of the combination compatibility of 1-deoxynojirimycin and fagomine. 1. Medicines: 1-deoxynojirimycin and fagomine, homemade. 2. Reagents: potassium dihydrogen phosphate, sodium hydroxide, sodium bicarbonate, para-nitrophenyl glucoside (PNPG), reduced glutathione and α-D-glucosidase sucrose. 3. Instrument: TU-1901 UV-Vis spectrophotometer. 4. Test method and results (1) Preparation of potassium phosphate buffer solution: dissolve 0.68120 g of potassium dihydrogen phosphate in 25 mL of distilled water, obtain stock solution 1, dissolve 0.2 g of NaOH in 25 mL of the distilled water, obtain stock solution 2, suck the stock solution 1 (25 mL), add into the stock solution 2 (11.8 mL), shake up, dilute to 100 mL and obtain the potassium phosphate buffer solution. (2) Na2CO[…] solution: […] Take 250 μL of the 1-deoxynojirimycin stock solution, dilute to 1 mL with the distilled water, and obtain the stock solution 1. Take 250 μL of the fagomine stock solution, dilute to 1 mL with the distilled water, and obtain the stock solution 2. […] (9) Determination reaction of α-D-glucosidase inhibitory activity Add the reagents according to the sequence in Table 1 for reaction, determine the absorbance value and calculate the α-glycosidase inhibition ratio of a sample according to the following formula: [formula] […]

[2] = tested on: NOD mice with spontaneous hyperglycemia; test: Blood glucose of mice with spontaneous hyperglycemia after 14 days intragastric administration; format: in vivo; details: for Blood glucose after administration: 1 h after administration at day 14, fasted 6 h, X ± SD; for Blood glucose before administration: n=10, X ± SD
Procedure: as §1, §2

[3] = tested on: SD rats with streptozotocin-induced hyperglycemia; test: Blood glucose of rats with streptozotocin-induced hyperglycemia after intragastric sucrose; format: in vivo; details: STZ rats, 60 mg/kg intragastric for 14 days
Procedure: Medicines: 1-deoxynojirimycin-fagomine mixture (2:1), homemade. The mixture is prepared to the required concentration with distilled water before the test. Glucobay is obtained from Bayer Healthcare Co., Ltd. Catechin, ginkgo biloba extract and flavonoids from mulberry leaves were obtained from Hunan Geneham Biomedical Technology Ltd. 2. Animals: SD rats with the weight of 180-220 g, half male and half female, provided by Hunan Institute of Pharmaceutical Industry Research. Modeling method: carry out small dose intravenous injection of 25 mg/kg of streptozotocin on the rats after fasting for 24 h, once a week, simultaneously heat feed for feeding, induce H type diabetes, determine the blood glucose 1 week after the second injection, and select the animals with the fasting blood glucose of above 7.8 mmol/L for carrying out the test. […] Reagents: streptozotocin, product of Sigma Company, USA. Use citric acid buffer solution (PH=4.0) before modeling, and prepare at low temperature; sucrose, analytically pure. […] PLUS blood glucose monitoring meter. […]

[4] = 20 mg/kg intragastric for 14 days
[5] = 50 mg/kg intragastric for 14 days

With `OC[C@H]1NCC[C@@H](O)[C@@H]1O` [Fagomine, fagomine] the Serum insulin [1, 4] was 21.78 ± 3.34 MIU/L, the “Effect on serum insulin of the NOD mice, result in words” value [1] was “significantly improve the serum insulin level” and the “α-glycosidase inhibition ratio %” value (α-D-glucosidase) was 21%. For the same compound, the “Blood glucose after administration” value [2, 4] was 12.24 ± 1.62 mmol/L and the “Blood glucose before administration” value ([2]; 20 mg/kg intragastric) was 13.49 ± 1.65 mmol/L.

For Catechin, the “Blood glucose value of rats with hyperglycemia, after administration” value ([3]; day 14, 1.0 h after 5.0 g/kg sucrose) was 14.10 ± 1.50 mmol/L and the “Blood glucose value of rats with hyperglycemia, before administration” value ([3]; day 14, fasted 6 h, before sucrose administration) was 9.17 ± 0.89 mmol/L.

In the case of `COc1ccc(Cl)cc1C(=O)NCCc1ccc(S(=O)(=O)NC(=O)NC2CCCCC2)cc1` [Glibenclamide], the Serum insulin [1, 5] was 22.57 ± 3.05 MIU/L, the “Blood glucose after administration” value [2, 5] was 10.57 ± 2.17 mmol/L and the “Blood glucose before administration” value ([2]; 50 mg/kg intragastric) was 13.26 ± 2.26 mmol/L.

`OCC1NCC(O)C(O)C1O` (stereo not shown) [DNJ] was tested, and the Serum insulin [1, 4] was 16.14 ± 2.63 MIU/L, the “Effect on serum insulin of the NOD mice, result in words” value [1] was “little effect” and the “α-glycosidase inhibition ratio %” value (α-D-glucosidase) was 44%. For the same compound, the “Blood glucose after administration” value [2, 4] was 10.60 ± 2.13 mmol/L, the “Blood glucose before administration” value ([2]; 20 mg/kg intragastric) was 14.20 ± 1.33 mmol/L and the “Effect on blood glucose of the NOD mice, result in words” value ([2]; 20 mg/kg, 14 days) was “significantly reduce the blood glucose”.
